Data published in US4482553A, “Benzothienylglycyl cephalosporin derivatives” (priority 1983, dated 1984).
In brackets after ≈: the same amount, converted by molar mass. Like-named read-outs stand apart in the source and are kept apart here.

Assays:
Assay type in all cases: cell-based
Staph. epi [1] = assay: Expanded Spectrum MIC (Table II), Staph. epi
Source text: (§1) The antibacterial activity of several compounds of the invention has been determined in standard in vitro agar dilution assays against a variety of gram positive and gram negative microorganisms. The following Tables present typical minimum inhibitory concentrations (MIC's) in μg/ml for several compounds of the invention when evaluated against the indicated microorganisms. MIC's for several known compounds are also presented for comparison.

Staph. aureus [2] = assay: standard in vitro agar dilution MIC (Table I), Staph. aureus; conditions: Staphylococcus aureus
Strep. PN = assay: standard in vitro agar dilution MIC (Table I), Strep. PN; conditions: strain PARK, read-out: MIC
Staph. aureus [3] = assay: Expanded Spectrum MIC (Table II), Staph. aureus; conditions: Staphylococcus aureus
Source text: as §1

Staph. epi [4] = assay: standard in vitro agar dilution MIC (Table I), Staph. epi; conditions: Table I, agar dilution, read-out: MIC
Strep. A = assay: standard in vitro agar dilution MIC (Table I), Strep. A; conditions: Table I, agar dilution, strain C203; read-out: MIC
Strep. D = assay: standard in vitro agar dilution MIC (Table I), Strep. D
H. influ. [5] = assay: standard in vitro agar dilution MIC (Table I), H. influ.
Source text: as §1

E. coli = assay: standard in vitro agar dilution MIC (Table I), E. coli; conditions: Escherichia coli
Klebsiella = assay: standard in vitro agar dilution MIC (Table I), Klebsiella
H. influ. [6] = assay: Expanded Spectrum MIC (Table II), H. influ.
Source text: as §1

[7] = Klebsiella, Table I, agar dilution, strain X26, read-out: MIC
[8] = Klebsiella, Table I, agar dilution, strain X68, read-out: MIC

SMILES | MIC (Staph. epi [1]; strain 219, read-out: MIC) | MIC (Staph. epi [1]; strain 269, read-out: MIC) | MIC (Staph. epi [1]; strain 270, read-out: MIC) | MIC (Staph. epi [1]; strain 285, read-out: MIC) | MIC (Staph. epi [1]; strain 286, read-out: MIC) | MIC (Staph. epi [1]; strain EPI1, read-out: MIC) | MIC (Staph. aureus [2]; strain S13E) | MIC (Staph. aureus [2]; strain V41, read-out: MIC) | MIC (Staph. aureus [2]; strain X1.1, read-out: MIC) | MIC (Staph. aureus [2]; strain X400, read-out: MIC) | MIC (Strep. PN) | MIC (Staph. aureus [3]; strain 239, read-out: MIC) | MIC (Staph. epi [4]; strain 222) | MIC (Staph. epi [4]; strain EPI1) | MIC (Strep. A) | MIC (H. influ. [5]; strain 76, read-out: MIC) | MIC (H. influ. [5]; strain C.L., read-out: MIC) | MIC (E. coli; strain EC14) | MIC (E. coli; strain N10) | MIC (Klebsiella; [7]) | further results
COc1c([C@@H](N)C(=O)NC2C(=O)N3C(C(=O)O)=C(C)CSC23)sc2ccccc12 (stereo partly drawn) [Ex. 9A, D-7-(3-methoxy-2-benzothienylglycylamido)-3-methyl-3-cephem-4-carboxylic acid] | 0.25 µg/mL (≈ 0.577 µM) | 1 µg/mL (≈ 2.31 µM) | 1 µg/mL (≈ 2.31 µM) | 0.5 µg/mL (≈ 1.15 µM) | 0.25 µg/mL (≈ 0.577 µM) | 4 µg/mL (≈ 9.23 µM) | 64 µg/mL (≈ 148 µM) | 64 µg/mL (≈ 148 µM) | 4 µg/mL (≈ 9.23 µM) | > 128 µg/mL | 4 µg/mL (≈ 9.23 µM) | 0.5 µg/mL (≈ 1.15 µM) | 8 µg/mL (≈ 18.5 µM) | 32 µg/mL (≈ 73.8 µM) | 1 µg/mL (≈ 2.31 µM) | 32 µg/mL (≈ 73.8 µM) | 64 µg/mL (≈ 148 µM) | 128 µg/mL (≈ 295 µM) | > 128 µg/mL | 32 µg/mL (≈ 73.8 µM) | MIC (Staph. aureus [3]; strain S224, read-out: MIC): 0.25 µg/mL (≈ 0.577 µM); MIC (Staph. aureus [3]; strain S225, read-out: MIC): 0.25 µg/mL (≈ 0.577 µM); MIC (Staph. aureus [3]; strain S226, read-out: MIC): 0.5 µg/mL (≈ 1.15 µM); MIC (Staph. aureus [3]; strain S227, read-out: MIC): 0.25 µg/mL (≈ 0.577 µM); MIC (Staph. aureus [3]; strain S228, read-out: MIC): 0.25 µg/mL (≈ 0.577 µM); MIC (Staph. aureus [3]; strain S229, read-out: MIC): 0.5 µg/mL (≈ 1.15 µM); MIC (Staph. aureus [3]; strain S230, read-out: MIC): 0.25 µg/mL (≈ 0.577 µM); MIC (Staph. aureus [3]; strain S231, read-out: MIC): 0.25 µg/mL (≈ 0.577 µM); MIC (Staph. aureus [3]; strain S234, read-out: MIC): 0.5 µg/mL (≈ 1.15 µM); MIC (Staph. aureus [3]; strain S237, read-out: MIC): 0.5 µg/mL (≈ 1.15 µM); MIC (Staph. aureus [3]; strain S238, read-out: MIC): 1 µg/mL (≈ 2.31 µM); MIC (Strep. D; strain 2041): 128 µg/mL (≈ 295 µM); MIC (Strep. D; strain X66): > 128 µg/mL; MIC (E. coli; strain TEM): > 128 µg/mL; MIC (Klebsiella; Klebsiella): > 128 µg/mL; MIC (Klebsiella; Table I, agar dilution, strain X68): > 128 µg/mL
CC1=C(C(=O)O)N2C(=O)C(NC(=O)[C@@H](N)c3cc4c(Cl)cccc4s3)C2SC1 (stereo partly drawn) [Ex. 7B, L-7-(4-chloro-2-benzothienylglycylamido)-3-methyl-3-cephem-4-carboxylic acid] | – | – | – | – | – | – | – | 16 µg/mL (≈ 36.5 µM) | 2 µg/mL (≈ 4.57 µM) | 128 µg/mL (≈ 292 µM) | 2 µg/mL (≈ 4.57 µM) | – | 4 µg/mL (≈ 9.13 µM) | 8 µg/mL (≈ 18.3 µM) | 0.5 µg/mL (≈ 1.14 µM) | 4 µg/mL (≈ 9.13 µM) | 64 µg/mL (≈ 146 µM) | > 128 µg/mL | > 128 µg/mL | 32 µg/mL (≈ 73.1 µM) | MIC (Strep. D; strain 2041, read-out: MIC): 128 µg/mL (≈ 292 µM); MIC (Strep. D; strain X66, read-out: MIC): > 128 µg/mL; MIC (E. coli; strain TEM): > 128 µg/mL; MIC (Klebsiella; Klebsiella, Table I, agar dilution, strain KAE, read-out: MIC): > 128 µg/mL; MIC (Klebsiella; [8]): > 128 µg/mL
CC1(C)S[C@@H]2[C@H](NC(=O)[C@H](N)c3ccccc3)C(=O)N2[C@H]1C(=O)O [Ampicillin, reference compound] | – | – | – | – | – | – | 64 µg/mL (≈ 183 µM) | – | – | – | – | – | – | 8 µg/mL (≈ 22.9 µM) | – | – | – | 4 µg/mL (≈ 11.4 µM) | 8 µg/mL (≈ 22.9 µM) | 16 µg/mL (≈ 45.8 µM) | MIC (Strep. D; strain 2041, read-out: MIC): 2 µg/mL (≈ 5.72 µM); MIC (Strep. D; strain X66, read-out: MIC): 4 µg/mL (≈ 11.4 µM); MIC (H. influ. [5]; strain 76): 16 µg/mL (≈ 45.8 µM); MIC (H. influ. [5]; strain C.L.): 0.5 µg/mL (≈ 1.43 µM); MIC (Klebsiella; [8]): 16 µg/mL (≈ 45.8 µM)
CC1=C(C(=O)O)N2C(=O)C(NC(=O)[C@H](N)c3cc4cc(Cl)ccc4s3)C2SC1 (stereo partly drawn) [Ex. 2, D-7-(5-Chloro-2-benzothienyl)glycylamido-3-methyl-3-cephem-4-carboxylic acid] | 0.25 µg/mL (≈ 0.571 µM) | 1 µg/mL (≈ 2.28 µM) | 1 µg/mL (≈ 2.28 µM) | 0.5 µg/mL (≈ 1.14 µM) | 0.25 µg/mL (≈ 0.571 µM) | 4 µg/mL (≈ 9.13 µM) | – | 32 µg/mL (≈ 73.1 µM) | 0.5 µg/mL (≈ 1.14 µM) | 64 µg/mL (≈ 146 µM) | 0.5 µg/mL (≈ 1.14 µM) | 0.5 µg/mL (≈ 1.14 µM) | 1 µg/mL (≈ 2.28 µM) | 4 µg/mL (≈ 9.13 µM) | 0.125 µg/mL (≈ 0.285 µM) | 0.5 µg/mL (≈ 1.14 µM) | 2 µg/mL (≈ 4.57 µM) | – | – | 32 µg/mL (≈ 73.1 µM) | MIC (Staph. aureus [3]; strain S224, read-out: MIC): 0.25 µg/mL (≈ 0.571 µM); MIC (Staph. aureus [3]; strain S225, read-out: MIC): 0.25 µg/mL (≈ 0.571 µM); MIC (Staph. aureus [3]; strain S226, read-out: MIC): 0.5 µg/mL (≈ 1.14 µM); MIC (Staph. aureus [3]; strain S227, read-out: MIC): 0.25 µg/mL (≈ 0.571 µM); MIC (Staph. aureus [3]; strain S228, read-out: MIC): 0.25 µg/mL (≈ 0.571 µM); MIC (Staph. aureus [3]; strain S229, read-out: MIC): 0.5 µg/mL (≈ 1.14 µM); MIC (Staph. aureus [3]; strain S230, read-out: MIC): 0.25 µg/mL (≈ 0.571 µM); MIC (Staph. aureus [3]; strain S231, read-out: MIC): 0.25 µg/mL (≈ 0.571 µM); MIC (Staph. aureus [3]; strain S234, read-out: MIC): 0.5 µg/mL (≈ 1.14 µM); MIC (Staph. aureus [3]; strain S237, read-out: MIC): 0.5 µg/mL (≈ 1.14 µM); MIC (Staph. aureus [3]; strain S238, read-out: MIC): 1 µg/mL (≈ 2.28 µM); MIC (H. influ. [6]; strain 76, read-out: MIC): 8 µg/mL (≈ 18.3 µM); MIC (H. influ. [6]; strain 1683, read-out: MIC): 1 µg/mL (≈ 2.28 µM); MIC (H. influ. [6]; strain C.L., read-out: MIC): 32 µg/mL (≈ 73.1 µM); MIC (H. influ. [6]; strain M366): > 64 µg/mL; MIC (H. influ. [6]; strain STEL): > 64 µg/mL
